Tests used:
HER2 = HER2 (Homo sapiens, UniProt P04626); assay: Quantitative IHC of phosphorylated HER2 in patient tumor (EGF10027); assay type: in vivo; settings: for p-HER2 post-treatment OD: plasma […]
HER2 phosphorylation = tested on: HER2 phosphorylation; set-up: method as in printed; settings: abstract, ref not given, cited from earlier work
plasma proteins = tested on: plasma proteins; set-up: method as in EGF10027 protocol, CIB RM2000/00481/06; settings: mouse, rat, dog, rabbit and human plasma, 1 to 100 µM; ref EGF10027 protocol, CIB RM2000/00481/06; cited from earlier work
[1] = set-up: method as in study EGF10002; settings: ref study EGF10002, cited from earlier work
[2] = set-up: method as in study EGF10003; settings: ref study EGF10003, cited from earlier work
[3] = cited from earlier work
human CYP450 enzymes = settings: also CYP3A5, lesser extent CYP2C19; ref EGF10027 protocol, CIB RM2000/00481/06; cited from earlier work
[4] = cancer patients, once daily dosing up to 1800 mg, preliminary

Chain of HER2 (P04626 23-1255): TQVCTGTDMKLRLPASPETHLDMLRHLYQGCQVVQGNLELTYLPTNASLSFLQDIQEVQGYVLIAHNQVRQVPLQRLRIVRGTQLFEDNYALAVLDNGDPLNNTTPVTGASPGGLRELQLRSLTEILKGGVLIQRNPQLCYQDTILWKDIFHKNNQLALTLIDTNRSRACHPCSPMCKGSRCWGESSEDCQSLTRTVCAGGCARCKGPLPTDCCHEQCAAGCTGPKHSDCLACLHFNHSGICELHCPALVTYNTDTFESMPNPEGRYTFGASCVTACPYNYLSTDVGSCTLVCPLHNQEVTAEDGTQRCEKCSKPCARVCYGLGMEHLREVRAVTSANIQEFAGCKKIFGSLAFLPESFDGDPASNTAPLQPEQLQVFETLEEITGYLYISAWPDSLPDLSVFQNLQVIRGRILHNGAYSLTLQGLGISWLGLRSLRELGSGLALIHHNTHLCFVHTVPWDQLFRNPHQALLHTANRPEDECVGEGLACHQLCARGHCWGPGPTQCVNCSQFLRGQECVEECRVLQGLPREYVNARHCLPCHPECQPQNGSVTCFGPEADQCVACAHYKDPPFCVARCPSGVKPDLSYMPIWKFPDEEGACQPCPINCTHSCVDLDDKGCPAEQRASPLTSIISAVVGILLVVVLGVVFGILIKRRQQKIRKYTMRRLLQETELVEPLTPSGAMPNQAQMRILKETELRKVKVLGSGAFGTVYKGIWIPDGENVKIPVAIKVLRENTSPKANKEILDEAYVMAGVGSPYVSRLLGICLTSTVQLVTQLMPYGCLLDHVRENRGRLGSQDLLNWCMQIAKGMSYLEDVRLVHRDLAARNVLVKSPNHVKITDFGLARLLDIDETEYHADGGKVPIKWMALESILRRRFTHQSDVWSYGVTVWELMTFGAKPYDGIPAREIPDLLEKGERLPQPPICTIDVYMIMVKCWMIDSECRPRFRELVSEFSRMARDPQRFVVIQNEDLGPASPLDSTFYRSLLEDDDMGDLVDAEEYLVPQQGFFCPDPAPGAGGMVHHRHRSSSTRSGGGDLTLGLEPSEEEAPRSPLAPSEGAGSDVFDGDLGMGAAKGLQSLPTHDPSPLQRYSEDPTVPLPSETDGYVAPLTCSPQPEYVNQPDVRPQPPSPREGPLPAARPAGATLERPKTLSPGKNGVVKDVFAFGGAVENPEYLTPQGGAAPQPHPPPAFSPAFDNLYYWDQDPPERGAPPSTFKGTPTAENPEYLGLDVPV

With `CS(=O)(=O)CCNCc1ccc(-c2ccc3ncnc(Nc4ccc(OCc5cccc(F)c5)c(Cl)c4)c3c2)o1` [lapatinib] the “p-HER2 post-treatment OD, mean” value (HER2; mean of listed subjects) was 9.00 OD, the “HER2 phosphorylation in tumor” value (HER2; one patient with ABCB1 SNP C3435T, plasma 1 μM, tumor 9 μM) was “complete inhibition” and the “p-HER2 post-treatment OD” value (HER2; subject 5, tumor 25.60 µM) was 10 OD. For the same compound, the “p-HER2 post-treatment OD” value (HER2; subject 1405, tumor 12.76 µM) was 17 OD, the “in vitro IC90 for inhibition of HER2 phosphorylation” value (HER2 phosphorylation) was about 0.5 µg/mL and the IC90 (HER2 phosphorylation; read-out: in vitro IC90 for inhibition of HER2 phosphorylation) was about 900 nM. The plasma protein binding (plasma proteins) was over 99%, the “accumulation with once daily dosing” value ([1]; 100 and 175 mg doses) was about 50% and the half-life ([1]; Day 1) was 7 h. For the same compound, the “subjects with dose-limiting toxicity (diarrhea)” value ([2]; 900 mg BID) was 2 of 6, the incidence of diarrhea [2, 4] was 18-25% and the incidence of nausea [2, 4] was under 10%. The incidence of rash [2, 4] was under 10%, the “incidence of gastrointestinal intolerance (nausea, vomiting and diarrhea)” value ([2]; patients receiving twice daily dosing (900 or 750 mg)) was about 34% and the “AUC with 900 mg BID compared with 1800 mg once daily, higher” value ([2]; patients) was “~ two-fol d”. For the same compound, the “fluctuation between peak and trough plasma concentrations at steady state” value ([3]; patients, doses up to 1800 mg QD, ref EGF10027 protocol) was 3 fold, the Cmin ([3]; previous clinical studies, 1500 mg QD) was 1350 nM and the plasma half-life ([3]; ref EGF10027 protocol, original text) was about 14 h. The “metabolizing CYP enzymes” value (human CYP450 enzymes) was “metabolized predominantl y by CYP3A4”.
